Test results from patent US8436155B2, “7,2″-dehydrate puerarin and its salts, preparation method and use thereof” (Shandong University, priority 2010, dated 2013).

Tests used:
rat arrhythmias = assay: Antiarrhythmic experiment: arrhythmia induced by 0.1% BaCl2 in rats, ECG monitored for 30 min; assay type: in vivo, Wistar rats; details: for Arrhythmia duration: if not restored within 30 min, the record was 30 min
Experimental: 1. Method: 60 male, healthy adult Wistar rats with body weight of 180-220 g were randomly divided into 6 groups, i.e., a normal saline group, a propylene glycol solvent gavage group, a propylene glycol solvent intravenous injection group, a puerarin injection group, a 7,2″-dehydrate puerarin gavage group, and a 7,2″-dehydrate puerarin intravenous injection group, with 10 rats each group. The intravenous injection was carried out one time a day for three consecutive days. The gavage was carried out two times a day for three consecutive days. The normal saline group was administered with equal volume of 0.9% NaCl injection. The dose of the propylene glycol solvent gavage group was 14.3% propylene glycol 1 mL/100 g. The dose of the propylene glycol solvent intravenous injection group was 40% propylene glycol 0.5 mL/100 g. The dose of the puerarin injection group was 50 mg/kg. The dose of the 7,2″-dehydrate puerarin gavage group was 60 mg/kg. The dose of the 7,2″-dehydrate puerarin intravenous injection group was 30 mg/kg. The rats were anesthetized with 10% chloral hydrate (0.35 mL/100 g) by intraperitoneal injection and fixed in the back. A BL-410 biological functional system was introduced to monitor the ECG changes of the rats. A femoral vein of the rats was exposed, a scalp needle inserted, and a constant speed syringe pump connected. 0.1% BaCl2 was pumped with a dose of 0.1 mL/100 g and a speed of 0.6 mL/min. From the injection of BaCl2 on, the ECGs were monitored and recorded within 30 min. The arrhythmia latency and arrhythmia duration were recorded (if not restored within 30 min, the record was 30 min). The experimental results were collected and analyzed using Software SPSS. If P<0.05, the results has significant difference.

rabbit blood coagulation = assay: Anticoagulation experiment in vitro: coagulation time of oxalated rabbit blood after adding CaCl2; details: 37±0.5° C., x ± SD
Experimental: 1. Method: A rabbit was weighed and injected with 3% sodium pentobarbital 1 mL/kg via an ear vein, and then anaesthetized. […] The resulting solution was shaken uniformly and put into a constant temperature water bath (37±0.5° C.). Every 30 seconds, the small test tubes were tilted slightly once, and the coagulation time was recorded (the test tubes were tilted slightly, if no blood bled, the time was recorded as coagulation time). The experimental results were collected and analyzed using Software SPSS. If P<0.05, the results has significant difference.

platelet aggregation = details: in vitro, dose-dependent; read-out: IC50, inhibition on platelet aggregation in vitro; cited from earlier work

O=c1c(-c2ccc(O)cc2)coc2c3c(ccc12)O[C@@H]1[C@@H](O)[C@H](O)[C@@H](CO)O[C@@H]31 [7,2″-dehydrate puerarin]
Arrhythmia latency (rat arrhythmias; gavage, 60 mg/kg, two times a day for three days, x ± SD): 29.25 ± 5.12 s | Arrhythmia duration (rat arrhythmias; gavage, 60 mg/kg, x ± SD): 2.09 ± 0.98 min | Arrhythmia latency (rat arrhythmias; intravenous injection, 30 mg/kg, once a day for three days, x ± SD): 47.25 ± 19.87 s | Arrhythmia duration (rat arrhythmias; intravenous injection, 30 mg/kg, x ± SD): 17.75 ± 4.61 min | coagulation time (rabbit blood coagulation; 0.75 mg/mL (low dose)): 14.7 ± 1.6 min | coagulation time (rabbit blood coagulation; 1.5 mg/mL (medium dose)): 22.7 ± 2.6 min | coagulation time (rabbit blood coagulation; 3 mg/mL): 38.5 ± 2.1 min

CC(=O)Oc1ccccc1C(=O)Oc1ccc2c(=O)c(-c3ccc(O)cc3)coc2c1[C@@H]1O[C@H](CO)[C@@H](O)[C@H](O)[C@H]1O [7-acetylsalicylic acyl puerarin]
IC50 (platelet aggregation): 910 µM

O=c1c(-c2ccc(O)cc2)coc2c([C@@H]3O[C@H](CO)[C@@H](O)[C@H](O)[C@H]3O)c(O)ccc12 [Puerarin]
Arrhythmia duration (rat arrhythmias; puerarin injection group, 50 mg/kg): 30 min | Arrhythmia latency (rat arrhythmias; puerarin injection group, 50 mg/kg, once a day for three days, x ± SD): 86.75 ± 42.55 s | coagulation time (rabbit blood coagulation; 3 mg/mL): 15.3 ± 2.4 min
